Source: PubChem BioAssay AID2765 (Broad Institute, 2010)
Active and inactive are the calls of the source.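 How the source made its calls: active means half-maximal concentration for the rise in caspase light signal at or below ten times the top tested dose; inconclusive means flat fit between 30% and 70% activity, or unreliable curve fit; inactive means the rest.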

tested on: MEF A1-2A-BIM cells, caspase 3/7 luminescence, 3 h; assay: caspase activation in A1-2A-BIM MEF cells, dose response, A1 inhibitor project, cell-based, luminescence, retest (AID 2765)

SMILES	EC50
Cc1cc(NC(=O)COC(=O)C(Cc2ccccc2)NC(=O)c2ccco2)no1 (stereo not given)	> 35 µM (inactive)
CN(CC(=O)O)S(=O)(=O)c1ccc2oc3ccccc3c2c1	> 35 µM (inactive)
Cc1ccc(S(=O)(=O)c2nnn3c2nc(Nc2cccc(C)c2)c2ccccc23)cc1	> 35 µM (inactive)
NC(=O)OCCCc1ccccc1	> 35 µM (inactive)
O=C(NC1CCCCC1)C(c1ccc(F)cc1)N(CCc1ccccc1)C(=O)CN1C(=O)c2ccccc2S1(=O)=O (stereo not given)	24.1 µM
COc1ccc(NC(=O)CN2CCN(CC(=O)Nc3ccccc3Cl)CC2)cc1Cl	> 35 µM (inactive)
COc1ccc(CC(=O)Nc2ccc3c(c2)CCC3)cc1S(=O)(=O)N1CCOCC1	> 35 µM (inactive)
CN(c1ccccc1C(=O)Nc1cccc(C(F)(F)F)c1)S(C)(=O)=O	> 35 µM (inactive)
COc1ccc(-c2cc3ccccc3oc2=O)cc1NC(=S)NC(=O)c1ccc2c(c1)OCCO2	6.8 µM
N#CN=C1SCCS1	> 35 µM (inactive)
COC(=O)c1ccc2c(c1)C(C)(C)C(/C=C/c1ccccc1O)=[N+]2C	12.6 µM
Cc1noc(C)c1S(=O)(=O)N(C)C[C@H]1Oc2ccc(NC(=O)CCC(F)(F)F)cc2C(=O)N([C@H](C)CO)C[C@@H]1C	> 35 µM (inactive)
CCCCn1c(=O)[nH]c(=O)c2c1nc(Cn1ncc(Cl)c(Cl)c1=O)n2CCC	> 35 µM (inactive)
COc1ccc2cc(C)c3nnc(SCC(=O)Nc4nc(-c5ccc(F)cc5)cs4)n3c2c1	9.65 µM
CC(C)CNC(=S)N(Cc1ccco1)Cc1cc2cc3c(cc2[nH]c1=O)OCCO3	> 35 µM (inactive)
O=S1(=O)C=C(Sc2nc3ccccc3s2)c2ccccc21	> 35 µM (inactive)
CCOc1ccccc1NC(=O)Nc1cc(OC)ccc1OC	> 35 µM (inactive)
O=C1NC(=O)c2cc(NC(=O)C3CCCO3)ccc21 (stereo not given)	> 35 µM (inactive)
COCc1cc(C)nc(SCC(=O)Nc2nc(C)cs2)c1C#N	> 35 µM (inactive)
O=C(O)c1cccc(CSc2nc(-c3ccc(Cl)cc3)cc(C(F)(F)F)n2)c1	> 35 µM (inactive)
CCOC(=O)[C@H]1[C@H]2COc3cc(OC)ccc3[C@@H]2N2C(=O)c3ccc(C)cc3NC(=O)[C@@]12C	> 35 µM (inactive)
COCCNC(=S)N(CCc1c(C)[nH]c2ccccc12)Cc1cccnc1	> 35 µM (inactive)
COc1ccc(-c2ccc3c(c2)S(=O)(=O)c2cccc(C(=O)NCCOc4ccccc4)c2C3=O)cc1OC	> 35 µM (inactive)
COc1ccc(NC(=O)c2oc3ccccc3c2NC(=O)C2CC2)cc1	> 35 µM (inactive)

SMILES	EC50
CCCOC(=O)c1[nH]c2c(c1C)C(=O)CC(c1cccs1)C2 (stereo not given)	> 35 µM (inactive)
Cc1cc(C)cc(Cn2ncc(Cl)c(Cl)c2=O)c1	> 35 µM (inactive)
COc1ccc(CCNC(=O)CSc2nc(-c3ccc(OC)c(OC)c3)ccc2C#N)cc1	> 35 µM (inactive)
COc1ccc(CNC(=O)Cc2cccs2)cc1OC	> 35 µM (inactive)
CCC(=O)c1ccc(N2CCN(C(=O)Cc3ccccc3)CC2)c(F)c1	> 35 µM (inactive)
Cc1cc(C)c(C(=O)COC(=O)C2CCN(c3ccc(C(F)(F)F)cn3)CC2)cc1C	> 35 µM (inactive)
Cc1cccc(N(C)C(=O)CCS(=O)(=O)c2cccc3nonc23)c1	> 35 µM (inactive)
Cc1ccc(NC(=O)CSc2nnc(C)n2-c2ccccc2)cc1	> 35 µM (inactive)
COC(=O)[C@@]1(C)CC[C@]2(C)CC[C@@]3(C)C(=CC(=O)C4[C@@]5(C)CC[C@H](O)C(C)(C)[C@@H]5CC[C@]43C)[C@H]2C1 (stereo not given in full)	> 35 µM (inactive)
CCCc1nc2sc3c(c2c(=O)n1N)CCC3	> 35 µM (inactive)
Cc1ccccc1Nc1nc(-c2sc(NC(=O)c3cccc(Cl)c3)nc2C)cs1	> 35 µM (inactive)
Oc1ccc(/C=N/N2CCN(C3c4ccccc4-c4ccccc43)CC2)cc1O	> 35 µM (inactive)
CCc1noc(C)c1C(=O)N(CC)CC(=O)NCc1ccc(Cl)cc1	> 35 µM (inactive)
Cc1cc(Sc2ncnc(N)c2[N+](=O)[O-])ncn1	> 35 µM (inactive)
Nc1ccccc1SC(C[N+](=O)[O-])c1ccccc1 (stereo not given)	> 35 µM (inactive)
O=C(NC(Cc1ccccc1)C(=O)N1CCCCCC1)c1ccccc1 (stereo not given)	> 35 µM (inactive)
COC(=O)C1CSC(c2ccc(Cl)cc2)N1C(=O)c1ccccc1 (stereo not given)	> 35 µM (inactive)
CCOc1ccc(OCc2ccc(C(=O)NN=Cc3ccc[nH]3)cc2)cc1	> 35 µM (inactive)
CCOC(=O)/C=c1\s/c(=C\c2ccc(C(=O)OC)cc2)c(=O)n1CC(=O)Nc1ccccc1	> 35 µM (inactive)
NS(=O)(=O)c1ccc(CCNC(=O)c2ccc3c(c2)OCCO3)cc1	> 35 µM (inactive)
CCOCCCNC(=O)c1ccc(N2CC3CC(C2)c2cccc(=O)n2C3)c(NC(=O)Nc2cccc(OC)c2)c1 (stereo not given)	> 35 µM (inactive)
CCOC(=O)CN1C(=O)CC(c2ccc([N+](=O)[O-])cc2)C1=O (stereo not given)	> 35 µM (inactive)
Cc1ccc(NC(=O)Cn2ncc(Cl)c(Cl)c2=O)cc1S(=O)(=O)N1CCCCC1	> 35 µM (inactive)
O=P(C(c1c[nH]c2ccccc12)N1CCOCC1)(N1CCOCC1)N1CCOCC1 (stereo not given)	> 35 µM (inactive)

SMILES	EC50
Clc1ccccc1CN(Cc1ccccc1)c1ncnc2nc[nH]c12	> 35 µM (inactive)
CCOC(=O)c1cccc(NC(=O)CN(c2ccc(C)cc2)S(=O)(=O)c2c(C)noc2C)c1	> 35 µM (inactive)
O=C(CSc1ccc2ccccc2c1)NCCc1ccc(O)c(O)c1	> 35 µM (inactive)
CCN1CCN(CC(=O)Nc2cc(F)ccc2C)CC1	> 35 µM (inactive)
CCCS(=O)(=O)C/C(N)=N/OC(=O)c1ccc(Cl)cc1	> 35 µM (inactive)
Cc1cc(C(C#N)c2ccc(Cl)cc2)c(Cl)cc1NC(=O)c1cc(I)cc(I)c1O (stereo not given)	> 35 µM (inactive)
COc1ccc(CC(=O)NCCN2CCOCC2)cc1	> 35 µM (inactive)
CN1C2CCC1/C(=C/c1ccccn1)C(=O)/C2=C\c1ccccn1	> 35 µM (inactive)
O=C(COc1ccc(/C=N/NC(=O)c2cc3ccccc3o2)cc1Cl)Nc1ccccc1	6.55 µM
CCc1ccc(NC(=O)c2nc(S(=O)(=O)Cc3ccccc3)ncc2Cl)cc1	> 35 µM (inactive)
COc1cc2c(cc1OC)C(C)N(C(=O)c1cc3c(s1)-c1ccccc1OC3)CC2 (stereo not given)	> 35 µM (inactive)
CCOc1ccc(-c2ccc(NS(=O)(=O)c3ccc([N+](=O)[O-])cc3)cc2)nn1	> 35 µM (inactive)
Cc1cc(=O)oc2cc(OCCC[n+]3ccccc3)ccc12	> 35 µM (inactive)
O=C(Nc1nnc(C2CCCCC2)s1)C1CC(=O)N(c2ccc(F)cc2)C1 (stereo not given)	> 35 µM (inactive)
O=C(NCCN1CCN(c2ccccc2)CC1)c1ccc2c(c1)[nH]c(=S)n1c3ccccc3nc21	> 35 µM (inactive)
CCN(CC)CCCNC(=S)N1CCC(c2nc3ccccc3[nH]2)CC1	> 35 µM (inactive)
C=CCn1c(SCC(=O)NC2CC2)nnc1-c1ccccn1	> 35 µM (inactive)
CC(c1ccccc1)n1c(CCCO)nc2ccccc21 (stereo not given)	> 35 µM (inactive)
O=C(O)C(CCCCNS(=O)(=O)c1ccc(F)cc1)NS(=O)(=O)c1ccc(F)cc1 (stereo not given)	> 35 µM (inactive)
CCS(=O)(=O)c1nc2ccccc2n1Cc1ccccc1Cl	> 35 µM (inactive)
COc1ccc(N2C(=O)CCC(C(=O)O)C2c2ccc(OC)c(OC)c2)cc1 (stereo not given)	> 35 µM (inactive)
O=C(Cn1c(C(F)(F)F)nc2ccccc21)N=Nc1c(O)[nH]c2ccc(Br)cc12	27.4 µM
Cc1ccc(S(=O)(=O)n2ccc3c(OCCOCCNCc4ccc(F)cc4)cccc32)cc1	> 35 µM (inactive)
CC(C)[C@H]1CN=C2N(CCNC(=O)CCC3CCCCC3)[C@H](Cc3ccc(O)cc3)CN21	> 35 µM (inactive)

SMILES	EC50
Cn1nc(-c2ccc(OCC(=O)NCC3CCCO3)cc2)c2ccccc2c1=O (stereo not given)	> 35 µM (inactive)
Cc1cc(C)n(S(=O)(=O)c2ccc(C)c(C)c2C)n1	> 35 µM (inactive)
COc1ccc(C(=O)N/C(=C/c2cccs2)C(=O)NN)cc1OC	> 35 µM (inactive)
COc1cc(S(=O)(=O)Nc2ccncc2)ccc1F	> 35 µM (inactive)
COc1cc(Cl)c(C)cc1NC(=O)CSc1cc(Cl)ccc1Cl	> 35 µM (inactive)
Cc1cc(N2C(=O)C(O)=C(C(=O)c3cc4ccccc4o3)C2c2ccc(Br)cc2)no1 (stereo not given)	> 35 µM (inactive)
Cc1ccc(S(=O)(=O)NCCN2CCOCC2)cc1	> 35 µM (inactive)
COCC(=O)NC(C)c1nc2ccccc2[nH]1 (stereo not given)	> 35 µM (inactive)
CCOC(=O)C1=C(C)N(CCCC(=O)O)C(=O)NC1c1ccccc1OS(=O)(=O)c1ccc(C)cc1 (stereo not given)	> 35 µM (inactive)
Cc1cc(C)cc(N(CC(=O)Nc2cccc(C)c2C)S(=O)(=O)c2c(C)[nH]c(=O)[nH]c2=O)c1	> 35 µM (inactive)
CC(C)CC(=O)c1c[nH]c(C(=O)NCc2ccccc2)c1	> 35 µM (inactive)
O=C1C(=O)c2ccc(-c3ccccc3)cc2-c2ccccc21	> 35 µM (inactive)
Cc1ccc(N(Cc2cc(=O)[nH]c3ccccc23)C(=O)CCl)cc1	> 35 µM (inactive)
Cc1ccc(NC(=O)Cn2c(=O)cnc3ccccc32)cc1S(=O)(=O)N1CCOCC1	> 35 µM (inactive)
COc1ccccc1CCCNC(=O)C1CCC(=O)N(Cc2ccccc2F)C1 (stereo not given)	> 35 µM (inactive)
COc1cc(/C=C(/C#N)c2nc3ccccc3[nH]2)ccc1OCC(=O)Nc1ccccc1C	4.3 µM
Cc1ccc(C)c(NC(=O)COC(=O)c2cc3ccccc3oc2=O)c1	> 35 µM (inactive)
CS(=O)(=O)Nc1ccc(C2=NN(S(C)(=O)=O)C(c3ccccc3)C2)cc1 (stereo not given)	> 35 µM (inactive)
CC(=O)OC(C)(C)/C=C/C(=O)C(C)(O)C1[C@H](O)C[C@@]2(C)C3CC=C4C(CC[C@@H](O)C4(C)C)[C@]3(CO)C(=O)C[C@]12C (stereo not given in full)	> 35 µM (inactive)
CC(C)(C)C1=CC=C(C(C)(C)C)C(=O)C1=O	> 35 µM (inactive)
O=C(O)c1ccccc1SCCS(=O)(=O)c1ccc(Cl)cc1Cl	> 35 µM (inactive)
CCOC(=O)/C=c1\s/c(=C\c2ccc(C#N)cc2)c(=O)n1CC(=O)Nc1cccc(C)c1C	3.13 µM
COc1ccc(CCNC(=O)CCOc2ccc(C)cc2)cc1OC	> 35 µM (inactive)
